Test results reported in publication PMC6865065 (Journal of clinical oncology : official journal of the …, 2016).
Several values for one entry are separate records, joined by “and”; a condition that tells them apart may be missing. Equal values may be shown once. Entries after “also recorded” stand apart in the source; their conditions may differ. Read-outs that look alike come from different tables or passages of the source.

Columns and labels:
[1] = test system: patients with advanced solid tumors harboring FGFR genetic alterations; assay: Patient disposition and treatment exposure; assay type: in vivo
FGFR4 = settings: read-out: Half maximal inhibitory concentration; cited from earlier work
[2] = test system: patients with advanced solid tumors harboring FGFR genetic alterations
[3] = Pharmacokinetics: BGJ398 plasma concentrations; assay type: in vivo, human
[4] = test system: RT112 human tumor-derived FGFR gene fusion bladder cancer cell line; settings: read-out: Half maximal inhibitory concentration; cited from earlier work
serum phosphate levels = assay: Pharmacodynamics: serum phosphate levels; assay type: in vivo, human; settings: BGJ398 treatment; consistently at doses ≥ 100 mg
[5] = on the basis of preclinical data ref 20; cited from earlier work
[6] = test system: solid tumors harboring FGFR alterations; assay: Antitumor activity, RECIST v1.0 tumor evaluations; assay type: in vivo, human
[7] = 36 patients with FGFR1-amplified sqNSCLC, ≥ 100 mg continuously
[8] = eight patients with FGFR3-mutated bladder/urothelial cancer, ≥ 100 mg

Compound: CCN1CCN(c2ccc(Nc3cc(N(C)C(=O)Nc4c(Cl)c(OC)cc(OC)c4Cl)ncn3)cc2)CC1 [BGJ398, 3-(2,6-dichloro-3,5-dimethoxy-phenyl)-1-{6-[4-(4-ethyl-piperazin-1-yl)-phenylamino]-pyrimidin-4-yl}−1-methyl-urea]
- Discontinuation because of death ([1]; N = 132): 3.8%
- Discontinuation because of disease progression ([1]; N = 132): 67.4%
- Discontinuation because of AEs ([1]; human, in vivo): 12.9%
- Dose-limiting toxicity observed ([2]; 100 mg, n = 1): grade 3 aminotransferase elevations; also recorded: grade 3 increases in ALT/AST
- Dose-limiting toxicity observed ([2]; 150 mg, n = 1 each): grade 1 corneal toxicity; also recorded: grade 3 aminotransferase elevations; also recorded: grade 3 increases in ALT/AST
- Reversibility of DLTs ([2]; after BGJ398 interruption and/or concomitant medication): reversible
- Patients who died while receiving treatment or within 28 days of the last dose ([2]; all doses, N = 132): Fifteen
- Patients experiencing DLTs ([2]; dose-determining set, four of 34 patients, cycle 1): 11.8%
- AE leading to discontinuation, patients ([2]; human, in vivo): 13.6%
- AE requiring dose adjustment or interruption, patients ([2]; human, in vivo): 59.1%
- Asymptomatic hyperphosphatemia suspected to be treatment related, patients ([2]; human, in vivo): 72.7%
- At least one AE suspected to be treatment related, patients ([2]; human, in vivo): 95.5%
- Eye-related AE leading to discontinuation, patients ([2]; human, in vivo): 4.5%
- Grade 3/4 AE suspected to be treatment related, patients ([2]; human, in vivo): 31.1%
- Grade 3/4 TEAEs, patients ([2]; human, in vivo): 52.3%
- Median time to first dose interruption ([2]; human, in vivo): 22 days
- Treatment-emergent AEs (TEAEs), patients ([2]; human, in vivo): 99.2%
- Treatment-related alopecia, patients ([2]; human, in vivo): 23.5%
- Treatment-related decreased appetite, patients ([2]; human, in vivo): 28.8%
- Treatment-related diarrhea, patients ([2]; human, in vivo): 27.3%
- Treatment-related fatigue, patients ([2]; human, in vivo): 25.0%
- Treatment-related nausea, patients ([2]; human, in vivo): 22.0%
- Treatment-related stomatitis, patients ([2]; human, in vivo): 36.4%
- Dose-limiting toxicity observed ([2]; in vivo): hyperphosphatemia
- Deaths attributed to PD or to related AEs ([2]; of fifteen deaths): 11
- Deaths suspected to be BGJ398 related ([2]; of fifteen deaths): One
- Maximum tolerated dose (MTD) ([2]; oral, once daily): 125 mg
- Recommended phase II dose (RP2D) ([2]; oral, once daily, 3-weeks-on/1-week-off schedule): 125 mg
- Increase of mean AUC from 0 to 24 hours on day 1 ([3]; from 20 to 150 mg once daily): approximately nine
- Tmax ([3]; human, plasma, oral, Median time to reach maximum plasma concentration, after a single dose): 2 to 3 h
- IC50 [4]: 4 nM
- Serum phosphate levels (serum phosphate levels): increased serum phosphate levels; also recorded: Elevated serum phosphate levels
- Patients continuing to receive treatment for > 8 weeks ([6]; 31 sqNSCLC patients treated at 125 mg continuously): 12
- Disease control rate (DCR: PR + SD) [6, 7]: 50%
- Patients achieving PRs (overall response rate) [6, 7]: 11.1% and 11%
- Patients with SD [6, 7]: 14 patients
- Patients with reduced tumor burden ([6]; 85 patients treated at ≥ 100 mg with evaluable data (28 patients)): 32.9%
- Time responder remained on study ([6]; FGFR1-amplified sqNSCLC, unconfirmed PR): 26.3 weeks
- Patients with best overall response of SD ([6]; all patients, N = 132): 42
- Tumor burden change ([6]; all three patients with FGFR2-altered cholangiocarcinoma with pre- and post-treatment assessments): reduced tumor burden
- Patients with best response of SD ([6]; breast cancer, ≥ 100 mg, 10 of 32 patients): 31%
- Partial responses ([6]; doses ≥ 100 mg, FGFR1-amplified sqNSCLC and FGFR3-mutant bladder/urothelial cancer, six confirmed): seven
- Disease control rate (DCR) [6, 8]: 75%
- Patients achieving PRs (overall response rate) [6, 8]: 37.5% and 38%
- Patients with reduced tumor burden [6, 8]: 62.5%
- Patients with disease control ([6]; of 132 patients across all doses): 49
